Experiments:
Aβ42 = assay: In vivo efficacy: brain soluble Aβ42 in non-transgenic rodents (ELISA); settings: Mus musculus, dose 30 mg/kg oral dosing, brain soluble fraction, animals sacrificed after 4 h, untreated animals (Ctrl) set at 100, read-out: Aβ42 (% vs Ctrl)_Mean
Excerpt: (§1) To determine whether acute administration of an Aβ42 lowering agent would reduce Aβ42 levels in vivo, non-transgenic rodents, e.g. mice or rats were used. Animals treated with the Aβ42 lowering agent were examined and compared to those untreated or treated with vehicle and brain levels of soluble Aβ42 and total Aβ were quantitated by standard techniques, for example, using ELISA. Treatment periods varied from hours (h) to days and were adjusted based on the results of the Aβ42 lowering once a time course of onset of effect could be established.
(§2) A typical protocol for measuring Aβ42 lowering in vivo is shown but it is only one of many variations that could be used to optimize the levels of detectable Aβ. For example, Aβ42 lowering compounds were formulated in 20% of Captisol® (a sulfobutyl ether of β-cyclodextrin) in water or 20% hydroxypropyl β cyclodextrin. The Aβ42 lowering agents were administered as a single oral dose or by any acceptable route of administration to overnight fasted animals. After 4 h, the animals were sacrificed and Aβ42 levels were analysed.
(§3) Blood was collected by decapitation and exsanguinations in EDTA-treated collection tubes. Blood was centrifuged at 1900 g for 10 minutes (min) at 4° C. and the plasma recovered and flash frozen for later analysis. The brain was removed from the cranium and hindbrain. The cerebellum was removed and the left and right hemisphere were separated. The left hemisphere was stored at −18° C. for quantitative analysis of test compound levels. The right hemisphere was rinsed with phosphate-buffered saline (PBS) buffer and immediately frozen on dry ice and stored at −80° C. until homogenization for biochemical assays.
(§4) Mouse brains from non-transgenic animals were resuspended in 8 volumes of 0.4% DEA (diethylamine)/50 mM NaCl containing protease inhibitors (Roche-11873580001 or 04693159001) per gram of tissue, e.g. for 0.158 g brain, add 1.264 ml of 0.4% DEA. All samples were homogenized in the FastPrep-24 system (MP Biomedicals) using lysing matrix D (MPBio #6913-100) at 6 m/s for 20 seconds. Homogenates were centrifuged at 221.300×g for 50 min. The resulting high speed supernatants were then transferred to fresh eppendorf tubes. Nine parts of supernatant were neutralized with 1 part 0.5 M Tris-HCl pH 6.8 and used to quantify Aβtotal and Aβ42.
(§5) To quantify the amount of Aβtotal and Aβ42 in the soluble fraction of the brain homogenates, Enzyme-Linked-Immunosorbent-Assays were used. Briefly, the standards (a dilution of synthetic Aβ1-40 and Aβ1-42, Bachem) were prepared in 1.5 ml Eppendorf tube in Ultraculture, with final concentrations ranging from 10000 to 0.3 pg/ml. The samples and standards were co-incubated with HRPO-labelled N-terminal antibody for Aβ42 detection and with the biotinylated mid-domain antibody 4G8 for Aβtotal detection. 50 μl of conjugate/sample or conjugate/standards mixtures were then added to the antibody-coated plate (the capture antibodies selectively recognize the C-terminal end of Aβ42, antibody JRF/cAβ42/26, for Aβ42 detection and the N-terminus of Aβ, antibody JRF/rAβ/2, for Aβtotal detection). The plate was allowed to incubate overnight at 4° C. in order to allow formation of the antibody-amyloid complex. Following this incubation and subsequent wash steps the ELISA for Aβ42 quantification was finished by addition of Quanta Blu fluorogenic peroxidase substrate according to the manufacturer's instructions (Pierce Corp., Rockford, Ill.). A reading was performed after 10 to 15 min (excitation 320 nm/emission 420 nm).
In this model a Aβ42 lowering compared to untreated animals would be advantageous, in particular a Aβ42 lowering with at least 10%, more in particular a Aβ42 lowering with at least 20%.
(§6) The results are shown in Table 4 (dose 30 mg/kg oral dosing) (value for untreated animals as control (Ctrl) was set at 100): […]

Aβ38 = assay: In vivo efficacy: brain soluble Aβ38 in non-transgenic rodents (ELISA); settings: Mus musculus, dose 30 mg/kg oral dosing, brain soluble fraction, animals sacrificed after 4 h, untreated animals (Ctrl) set at 100, read-out: Aβ38 (% vs Ctrl)_Mean
Excerpt: as §1, with “Aβ38 increasing agents” for “Aβ42 lowering agent”, “increase Aβ38” for “reduce Aβ42”, “Aβ38” for “Aβ42”, “Aβ38 increase” for “Aβ42 lowering”
as §2, with “measuring Aβ38 increase” for “measuring Aβ42 lowering”, “example, Aβ38 increasing agents” for “example, Aβ42 lowering compounds”, “hydroxypropyl βcyclodextrin.” for “hydroxypropyl β cyclodextrin.”, “The Aβ38 increasing” for “The Aβ42 lowering”, “and Aβ38” for “and Aβ42”
as §3
as §4, with “Aβ total” for “Aβtotal”, “Aβ38.” for “Aβ42.”
as §5, with “Aβ38” for “Aβ42”, “Aβ1-38, ANASPEC)” for “Aβ1-42, Bachem)”, “Aβ38,” for “Aβ42,”, “J&JPRD/Aβ38/5,” for “JRF/cAβ42/26,”
In this model a Aβ38 increase compared to untreated animals would be advantageous, in particular a Aβ38 increase with at least 10%, more in particular a Aβ38 increase with at least 20%.
as §6

| SMILES | melting point | response vs control in vivo at 30 mg/kg (Aβ42) | response vs control in vivo at 30 mg/kg (Aβ38) |
| --- | --- | --- | --- |
| Cc1cn(-c2ccc3n(c2=O)CC(C)N(C(C)c2cc(C(F)(F)F)cc(C(F)(F)F)c2)C3=O)cn1.Cl (single isomer, unassigned) [compound 111] | 147.3 °C |  |  |
| Cc1cn(-c2ccc3n(c2=O)CC(C)N(C(C)c2cc(C(F)(F)F)cc(C(F)(F)F)c2)C3=O)cn1.Cl (single isomer, unassigned) [compound 112] | 259 °C |  |  |
| Cc1cn(-c2ccc3n(c2=O)CCN(C(C)c2cn(C)c4cc(F)c(Cl)cc24)C3=O)cn1 (single isomer, unassigned) [compound 185] | 258 °C |  |  |
| Cc1cn(-c2ccc3n(c2=O)CC(C)N(C(C)c2cn(C)c4cc(F)c(Cl)cc24)C3=O)cn1 (single isomer, unassigned) [compound 189] | 263 °C |  |  |
| Cc1cn(-c2ccc3n(c2=O)CC(C)N(C(C)c2c[nH]c4c(F)cc(Cl)cc24)C3=O)cn1 (single isomer, unassigned) [compound 219] | 263 °C |  |  |
| CCC1Cn2c(ccc(-n3cnc(C)c3)c2=O)C(=O)N1Cc1cc(C(F)(F)F)cc(C(F)(F)F)c1.Cl (centres unmarked) [compound 1] | 203.6 °C | 61% | 103% |
| Cc1cn(-c2ccc3n(c2=O)CC(C)N(Cc2cc(OCC4CC4)cc(C(F)(F)F)c2)C3=O)cn1.Cl (centres unmarked) [compound 6] | 175.4 °C | 85% | 129% |
| CCc1cn(-c2ccc3n(c2=O)CC(C)N(Cc2cc(C(F)(F)F)cc(C(F)(F)F)c2)C3=O)cn1.Cl (centres unmarked) [compound 7] | 290 °C | 73% | 80% |
| Cc1cn(-c2ccc3n(c2=O)C[C@@H](C)N(Cc2cccc(C(C)(C)C)c2)C3=O)cn1 [compound 23] |  | 122% | 132% |
| Cc1cn(-c2ccc3n(c2=O)C[C@@H](C)N(CCc2cc(C(F)(F)F)cc(C(F)(F)F)c2)C3=O)cn1 [compound 50] |  | 88% | 110% |
| Cc1cn(-c2ccc3n(c2=O)C[C@@H](C)N(Cc2ccc(Cl)c(C(F)(F)F)c2)C3=O)cn1 [compound 62] |  | 68% | 160% |
| Cc1cn(-c2ccc3n(c2=O)C[C@@H](C)N(Cc2cc(N4CCC(C)CC4)ccc2Cl)C3=O)cn1 [compound 80] |  | 119% | 118% |
| Cc1cn(-c2ccc3n(c2=O)C[C@@H](C)N(Cc2cc(N4CCCC4)ccc2Cl)C3=O)cn1 [compound 82] |  | 78% | 120% |
| Cc1cn(-c2ccc3n(c2=O)CCN(Cc2ccc(C)c(N4CCCCC4)c2)C3=O)cn1 [compound 99] |  | 111% | 92% |
| C[C@@H]1Cn2c(ccc(-n3cnc(Cl)c3)c2=O)C(=O)N1Cc1cc(C(F)(F)F)cc(C(F)(F)F)c1 [compound 118] | 157.9 °C |  |  |
| Cc1cn(-c2cc(F)c3n(c2=O)C[C@@H](C)N(Cc2cc(C(F)(F)F)cc(C(F)(F)F)c2)C3=O)cn1 [compound 158] | 137.1 °C |  |  |

Second part, led by results:

| melting point | SMILES | response vs control in vivo at 30 mg/kg (Aβ42) | response vs control in vivo at 30 mg/kg (Aβ38) |
| --- | --- | --- | --- |
| 203.8 °C | Cc1cn(-c2ccc3n(c2=O)CCN(C(C)c2cccc(Cl)c2Cl)C3=O)cn1 (single isomer, unassigned) [10a] | 87% | 85% |
| 185 °C | Cc1cn(-c2ccc3n(c2=O)C[C@@H](C)N(Cc2ccc(Cl)c(Cl)c2)C3=O)cn1 [compound 2] | 82% | 129% |
| 176.6 °C | Cc1cn(-c2ccc3n(c2=O)CC(C)N(Cc2cc(C(F)(F)F)cc(C(F)(F)F)c2)C3=O)cn1 (centres unmarked) [compound 3] | 55% | 137% |
| 165.6 °C | Cc1cn(-c2ccc3n(c2=O)CCN(Cc2cccc(-c4ccccc4)c2)C3=O)cn1 [compound 5] | 78% | 110% |
| 186.1 °C | Cc1cn(-c2ccc3n(c2=O)CCN(Cc2ccccc2C)C3=O)cn1 [compound 22] | 106% | 105% |
| 145.6 °C | Cc1cn(-c2ccc3n(c2=O)C[C@@H](C)N(Cc2ccc(C(F)(F)F)c(C(F)(F)F)c2)C3=O)cn1 [compound 46] | 60% | 62% |
| 167.7 °C | Cc1cc(CN2C(=O)c3ccc(-n4cnc(C)c4)c(=O)n3C[C@H]2C)cc(C(F)(F)F)c1 [compound 59] | 82% | 126% |
| 180.4 °C | Cc1cn(-c2ccc3n(c2=O)C[C@@H](C)N(Cc2cc(Cl)cc(C(F)(F)F)c2)C3=O)cn1 [compound 63] | 82% | 133% |
| 195.1 °C | Cc1cn(-c2ccc3n(c2=O)CCN(Cc2ccc(Cl)c(C(F)(F)F)c2)C3=O)cn1 [compound 65] | 104% | 132% |
| 198.1 °C | Cc1cn(-c2ccc3n(c2=O)C[C@@H](C)N(Cc2ccc(F)c(F)c2)C3=O)cn1 [compound 133] |  |  |
